In patent US20170298347A1, “NOVEL FUSION-CIRCULAR RNAs AND USES THEREOF” (BETH ISRAEL DEACONESS MEDICAL CENTER, priority 2016, published 2017):

Test system: K562 cells
Experiment: Apoptosis (AnnexinV/7-AAD) in K562 cells treated with Ara-C or ATO
Type: cell-based, human
Settings: K562 transduced with empty vector; ATO 1 μM, Ara-C 0.5 μM
Description: K562 cells (Lozzio and Lozzio, 1979) were then transduced with viral vectors expressing f-circM9. Cells transduced only with an empty vector were used as control. F-circM9-expressing cells were sorted for a pure population and were subsequently subjected to treatment with Ara-C and ATO. […] On the contrary, clear differences were noticed in treated cells.
THP-1, K562, U937, HL-60, Kasumi and NB4 cell lines were maintained in RPMI medium supplemented with 10% FBS. MEFs Arf−/− cells were grown in DMEM supplemented with 10% FBS. Primary leukemic cells transduced with MLL/AF9 cDNA were maintained in StemSpan medium (Stem Cell Technologies) supplemented with IL6 (15 ng/ml), IL3 (15 ng/ml) TPO (50 ng/ml) and SCF (50 ng/ml) during the transduction with retroviral vectors. Cells were grown at 37° C. in a 5% CO2 humidified incubator. Fractionation of the cells to separate nucleus and cytoplasm has been performed using PARIS-kit (Ambion) following the manufacturer's instructions. The efficiency of the separation of the 2 fractions was assessed by Western blot analysis of β-actin (cytosol) and […] (nucleus). […]
Apoptotic cells were analyzed with 7AAD and Annexin-V-APC. Cells were stained for 15 minutes with both markers and then analyzed using LRSII (BD, Pharmingen).

Nc1ccn([C@@H]2O[C@H](CO)[C@@H](O)[C@@H]2O)c(=O)n1 [Ara-C, cytarabine]
apoptosis upon drug treatment: signs of apoptosis

Arsenic trioxide [ATO]
apoptosis upon drug treatment: signs of apoptosis
